The nature of data set [1]: logP determination via HPLC retention times (calibration with unbranched alkan-2-ones). Format: physicochemical. An excerpt:
Die Kalibrierung wurde jeweils mit unverzweigten Alkan-2-onn (3 bis 16 Kohlenstoff Atome) mit bekannten IogP Werten durchgeführt (Bestimmung von den logP Werten über die Retentionszeiten durch lineare Interpolation zwischen zwei bestimmten Alkazionen). Die Lambda-max Werte wurden jeweils in den Maxima der Chromatographie-Signale durch UV Spektren zwischen 190nm und 400nm bestimmt.

A further data set relates to Botrytis cinerea. Description: Botrytis test (bean) / protective. Format: in vivo. The conditions noted are these: 250 ppm Wirkstoff; bean plants sprayed protectively; lesion size 2 days after inoculation. From the text: Botrytis - Test (Bohne) / protektiv
(§1) Zur Herstellung einer zweckmäßigen Wirkstoffzubereitung vermischt man 1 Gewichtsteil Wirkstoff mit den angegebenen Mengen Lösungsmittel und Emulgator und verdünnt das Konzentrat mit Wasser auf die gewünschte Konzentration.
Zur Prüfung auf protektive Wirksamkeit werden junge Pflanzen mit der Wirkstoff-zubereitung in der angegebenen Aufwandmenge besprüht. Nach Antrocknen des Spritzbelages werden auf jedes Blatt 2 kleine mit Botrytis cinerea bewachsene Agarstückchen aufgelegt. Die inokulierten Pflanzen werden in einer abgedunkelten Kammer bei ca. 20°C und 100% relativer Luftfeuchtigkeit aufgestellt.
2 Tage nach der Inokulation wird die Größe der Befallsflecken auf den Blättern ausgewertet. Dabei bedeutet 0% ein Wirkungsgrad, der demjenigen der Kontrolle entspricht, während ein Wirkungsgrad von 100% bedeutet, daß kein Befall beobachtet wird.

For the next data set, the system named is Venturia inaequalis. Description: Venturia test (apple) / protective. Type of data set: in vivo. As to conditions: 100 ppm Wirkstoff; apple plants sprayed protectively; evaluation 10 days after inoculation.
Text: Venturia - Test (Apfel) / protektiv
as §1
Zur Prüfung auf protektive Wirksamkeit werden junge Pflanzen mit der Wirkstoffzubereitung in der angegebenen Aufwandmenge besprüht. Nach Antrocknen des Spritzbelages werden die Pflanzen mit einer wäßrigen Konidiensuspension des Apfelschorferregers Venturia inaequalis inokuliert und verbleiben dann 1 Tag bei ca. 20°C und 100% relativer Luftfeuchtigkeit in einer Inkubations-kabine.
Die Pflanzen werden dann im Gewächshaus bei ca, 21°C und einer relativen Luftfeuchtigkeit von ca. 90% aufgestellt.
(§2) 10 Tage nach der Inokulation erfolgt die Auswertung. Dabei bedeutet 0% ein Wirkungsgrad, der demjenigen der Kontrolle entspricht, während ein Wirkungsgrad von 100% bedeutet, daß kein Befall beobachtet wird.

In data set [2] the test system is Erysiphe graminis f.sp, hordei. Description: Erysiphe test (barley) / protective. Format: in vivo. The conditions noted are these: 1000 ppm Wirkstoff; barley plants sprayed protectively; evaluation 7 days after inoculation.
Text: Erysiphe-Test (Gerste) / protektiv
as §1
Zur Prüfung auf protektive Wirksamkeit besprüht man junge Pflanzen mit der Wirkstoffzubereitung in der angegebenen Aufwandmenge.
Nach Antrocknen des Spritzbelages werden die Pflanzen mit Sporen von Erysiphe graminis f.sp, hordei bestäubt.
Die Pflanzen werden in einem Gewächshaus bei einer Temperatur von ca. 20°C und einer relativen Luftfeuchtigkeit von ca. 80 % aufgestellt, um die Entwicklung von Mehltaupusteln zu begünstigen.
7 Tage nach der Inokulation erfolgt die Auswertung, Dabei bedeutet 0 % ein Wirkungsgrad, der demjenigen der Kontrolle entspricht, während ein Wirkungsgrad von 100 % bedeutet, daß kein Befall beobachtet wird.

Data set [3] relates to Fusarium nivale (var. majus). Description: Fusarium nivale (var. majus) test (wheat) / protective. Format: in vivo. As to conditions: 1000 ppm Wirkstoff; wheat plants sprayed protectively; evaluation 6 days after inoculation. From the text: Fusarium nivale (var. majus)-Test (Weizen) / protektiv
(§3) Zur Herstellung einer zweckmäßigen Wirkstoffzubereitung vermischt man 1 Gewichtsteil Wirkstoff mit den angegebenen Mengen Lösungsmittel und Emulgator und verdünnt das Konzentrat mit Wasser auf die gewünschte Konzentration,
Zur Prüfung auf protektive Wirksamkeit werden junge Pflanzen mit der Wirkstoffzubereitung in der angegebenen Aufwandmenge besprüht. Nach Antrocknen des Spritzbelages werden die Pflanzen mit einer Konidiensuspension von Fusarium nivale (var. majus) besprüht.
Die Pflanzen werden in einem Gewächshaus unter lichtdurchlässigen Inkubationshauben bei einer Temperatur von ca.15°C und einer relativen Luftfeuchtigkeit von ca. 100 % aufgestellt.
6 Tage nach der Inokulation erfolgt die Auswertung. Dabei bedeutet 0% ein Wirkungsgrad, der demjenigen der Kontrolle entspricht, während ein Wirkungsgrad von 100% bedeutet, daß kein Befall beobachtet wird.

In another data set the test system is Leptosphaeria nodorum. Description: Leptosphaeria nodorum test (wheat) / protective. Format: in vivo. The conditions noted are these: 1000 ppm Wirkstoff; wheat plants sprayed protectively; evaluation 10 days after inoculation.
Text: Leptosphaeria nodorum-Test (Weizen) / protektiv
as §3
Zur Prüfung auf protektive Wirksamkeit werden junge Pflanzen mit der Wirkstoffzubereitung in der angegebenen Aufwandmenge besprüht Nach Antrocknen des Spritzbelages werden die Pflanzen mit einer Sporensuspension von Leptosphaeria nodorum besprüht, Die Pflanzen verbleiben 48 Stunden bei 20°C und 100 % relativer Luftfeuchtigkeit in einer Inkubationskabine.
Die Pflanzen werden in einem Gewächshaus bei einer Temperatur von ca. 20°C und einer relativen Luftfeuchtigkeit von 80 % aufgestellt.
as §2

Another data set deals with Pyrenophora teres. Description: Pyrenophora teres test (barley) / protective. Format: in vivo. The conditions noted are these: 1000 ppm Wirkstoff; barley plants sprayed protectively; evaluation 8 days after inoculation.
Text: Pyrenophora teres-Test (Gerste) / protektiv
as §1
Zur Prüfung auf protektive Wirksamkeit werden junge Pflanzen mit der Wirkstoffzubereitung in der angegeben Aufwandmenge besprüht, Nach Antrocknen des Spritzbelages werden die Pflanzen mit einer Konidiensuspension von Pyrenophora teres besprüht. Die Pflanzen verbleiben 48 Stunden bei 20°C und 100 % relativer Luftfeuchtigkeit in einer Inkubationskabine.
Die Pflanzen werden dann in einem Gewächshaus bei einer Temperatur von ca. 20°C und relativen Luftfeuchtigkeit von ca. 80 % aufgestellt.
8 Tage nach der Inokulation erfolgt die Auswertung. Dabei bedeutet 0 % ein Wirkungsgrad, der demjenigen der Kontrolle entspricht, während ein Wirkungsgrad von 100 % bedeutet, daß kein Befall beobachtet wird, […]

The mark [4] stands for this setting: HPLC on reversed-phase C 18 columns, EEC Directive 79/831 Annex V.A8, acidic aqueous mobile phase / acetonitrile, linear gradient 10% to 95% acetonitrile.
Setting [5] is: from retention times, linear interpolation between alkan-2-ones.

The results in this text go back to patent EP1972623A1, “Arylpyridazines as fungicides” (Bayer CropScience AG, priority 2007, dated 2008).

SMILES strings stand for the structures. Bounds are passed on as bounds.

Take `Cc1nnc(Cl)c(-c2c(F)cccc2F)c1-c1ccc(Cl)s1` [Beispiel 103]: in data set [1] (setting [4]), the chromatographic logP – broadly, lipophilicity estimated from chromatographic retention – was 3.84. The Wirkungsgrad in the data set on Botrytis cinerea and with Venturia inaequalis was not below 70% in each case.

Compound `Cc1nnc(Cl)c(-c2ccc(F)cc2Cl)c1-c1cccs1` [Beispiel 37] returned a chromatographic logP in data set [1] (setting [4]) of 3.45. Further, the Wirkungsgrad with Botrytis cinerea and with Venturia inaequalis was not below 70% in each case.

Take `Cc1nnc(Cl)c(-c2c(F)cccc2Cl)c1-c1ccc(Cl)s1` [Beispiel 94]: in data set [1] (setting [4]), the chromatographic logP was 4.16. Besides, the Wirkungsgrad in the data set on Botrytis cinerea and in the data set on Venturia inaequalis was not below 70% each time.

In turn, `Cc1nnc(Cl)c(-c2cc(F)ccc2F)c1-c1ccc(Cl)s1` [compound 119] came in with a chromatographic logP in data set [1] (setting [4]) of 3.42.

In turn, `CC1(O)OC(=O)C(c2cc(F)c(F)cc2F)=C1c1cccs1` (stereo not drawn) [3-(2,4,5-Trifluorphonyl)-4-(2-thienyl)-5-hydroxy-5-methylfuran-2(5H)-on] registered a chromatographic logP in data set [1] (setting [5]) of 2.57.

In data set [1] (setting [4]), `Cc1nnc(Cl)c(-c2c(F)cccc2F)c1-c1nccs1` [compound 105] returned a chromatographic logP of 2.51.

`Cc1nnc(Cl)c(-c2c(F)cc(F)cc2F)c1-c1ccc(Cl)s1` [compound 67] displayed a chromatographic logP in data set [1] (setting [4]) of 4.11.

`Cc1n[nH]c(=O)c(-c2ccccc2F)c1-c1cccs1` [4-(2-Fluorphonyl)-5-(2-thienyl)-6-methylpyridazin-3(2H)-on] yielded a chromatographic logP in data set [1] (setting [5]) of 2.06.

Turning to `CC1(O)OC(=O)C(c2ccc(F)cc2Br)=C1c1ccc(Cl)s1` (stereo not drawn) [3-(2-Brom-4-fluorphenyl)-4-(5-chlor-2-thienyl)-5-hydroxy-5-methylfuran-2(5H)-on], the chromatographic logP in data set [1] (setting [5]) was determined as 3.3.

On to `Cc1nnc(Cl)c(-c2c(Cl)cccc2Cl)c1-c1ccc(Cl)s1` [compound 46], for which, in data set [1] (setting [4]), the chromatographic logP amounted to 4.44.

The compound `Cc1ccc(-c2c(C)nnc(Cl)c2-c2c(F)cccc2F)nc1C` [Beispiel 101] displayed a chromatographic logP in data set [1] (setting [4]) of 2.88. Also, the Wirkungsgrad with Venturia inaequalis was not below 70%.

Regarding `CC1(O)OC(=O)C(c2c(F)cccc2Cl)=C1c1ccc(Cl)s1` (stereo not drawn) [3-(2-Chlor-6-fluorphenyl)-4-(5-chlor-2-thienyl)-5-hydroxy-5-methylfuran-2(5H)-on], the chromatographic logP in data set [1] (setting [5]) came out at 3.13.

In the case of `Cc1nnc(Cl)c(-c2c(F)cccc2F)c1-c1cccs1` [Beispiel 100], in data set [1] (setting [4]), the chromatographic logP came to 3.12. Further, the Wirkungsgrad (in data set [2]; with Botrytis cinerea; in data set [3]; in the data set on Venturia inaequalis; in the data set on Leptosphaeria nodorum; with Pyrenophora teres) was not below 70% throughout.

Turning to `Cc1n[nH]c(=O)c(-c2c(F)cccc2F)c1-c1ccncc1` [5-(4-Pyridyl)4-(2,6-difluorphenyl)-6-methylpyridazin-3(2H)-on], the chromatographic logP in data set [1] (setting [5]) is 0.93.

Compound `Cc1ccc(-c2c(C)nnc(Cl)c2-c2c(Cl)cccc2Cl)nc1C` [compound 47] displayed a chromatographic logP in data set [1] (setting [4]) of 4.16.

`Cc1n[nH]c(=O)c(-c2ccccc2Cl)c1-c1cccs1` [4-(2-Chlorphenyl)-5-(2-thienyl)-6-methylpyridazin-3(2H)-on] displayed a chromatographic logP in data set [1] (setting [5]) of 2.19.

In data set [1] (setting [4]), `Cc1nnc(Cl)c(-c2c(F)cccc2Cl)c1-c1cccs1` [compound 55] registered a chromatographic logP of 3.33.

With `Cc1ccc(-c2c(C)nnc(Cl)c2-c2c(F)cccc2F)o1` [compound 104], the chromatographic logP in data set [1] (setting [4]) worked out at 3.26.

`Cc1nnc(Cl)c(-c2ccc(F)cc2Cl)c1-c1ccc(Cl)s1` [compound 38] displayed a chromatographic logP in data set [1] (setting [4]) of 4.21.

In turn, `CC1(O)OC(=O)C(c2c(F)cccc2F)=C1c1cccs1` (stereo not drawn) [3-(2,6-Difluorphenyl)4-(2-thienyl)-5-hydroxy-5-methylfuran-2(5H)-on] gave a chromatographic logP in data set [1] (setting [5]) of 2.39.
